What was measured:
GRMD dogs [1] = assay: Tibiotarsal joint (TTJ) tetanic force/torque, GRMD dogs; assay type: in vivo, dog; details: for Absolute Tetanic Extension Force / Absolute Tetanic Extension Torque / Absolute Tetanic Flexion Force / Absolute Tetanic Flexion Torque / Body-mass Corrected Tetanic Extension Force / Body-mass Corrected Tetanic Extension Torque / Body-mass Corrected Tetanic Flexion Force / Body-mass Corrected Tetanic Flexion Torque: n = 6
Procedure: The GRMD disease phenotype was initially determined based on elevation of serum creatine kinase and confirmed by PCR. Two cohorts of GRMD dogs were treated with a 4-month course of NBD (10 mg/kg, IV) (American Peptides; Sunnyvale, CA, USA), beginning at approximately 2 months of age. The first cohort included four GRMD (Wasabi, Pepper, Hiver, and Automne) and two wild type (Cumin and Fennel) dogs, while the second cohort included two GRMD (Peach and Kiwi) and one wild type (Mango) dog. Results were compared with those collected from 10 untreated GRMD dogs (Cilantro, Lyle, Napoleon, Summer, Jane, Cosmo, Dorothy, Toto, Hickory, and Zeke) and eight age-matched wild type littermates (Oregano, Parsley, Kip, Pedro, Pinkman, Saul, Heisenberg, and Tuco) through a parallel, but separate, natural history study in which functional, magnetic resonance imaging (MRI), and pathologic data were collected.
For all tests, dogs were anesthetized (premeds: acepromazine maleate (0.02 mg/kg), butorphanol (0.4 mg/kg), and atropine sulfate (0.04 mg/kg); masked/intubated; and maintained with sevoflurane). To assess force and eccentric contraction decrement (below), dogs were positioned in dorsal recumbence in a custom-made stereotactic frame that aligns the tibia parallel to the table at a 90° angle to the femur. The angle at which maximal joint torque is generated during isometric contractions has been termed the optimal joint angle, which is analogous to the optimal fiber length (Lo) for individual muscle force measurements. Our choice of 90° as the optimal joint angle was based on studies in which torque was measured over a range of angles. The length-tension relationship was not shifted for normal versus GRMD dogs. TTJ flexion and extension torque (N-m) was measured by a rapid-response servomotor/force transducer (model 310B LR, Aurora Scientific, Inc., Aurora, ON, Canada) controlled by a PC using custom LabView software. Either the common peroneal (TTJ flexion) or tibial (TTJ extension) nerve was stimulated using paired stimulating and reference 27-gauge monopolar electrodes placed just distal to the fibular head (common peroneal nerve) or within the gastrocnemius muscles (tibial nerve), respectively. As a result, the paw of the distal pelvic limb pulled (flexion) or pushed against (extension) a pedal affixed to a transducer, providing a measure of isometric torque. Supramaximal 150 V, 100 μs pulses were applied (Model S48 Solid State Square Wave Stimulator; Grass Instruments, Quincy, MA, USA) in a tetanic run of 250 pulses (50/s). The site of contact for the paw with the lever (moment arm) was estimated to be 75% of the distance between the point of the hock and the distal digit. Torque (Newton-meters) was divided by the moment arm (meters) to convert to force (Newtons).

[2] = dog, in vivo, iv
Source text: Having established a treatment regimen that provides efficacy of NBD in mice, we next asked whether such therapy could be applied to a larger animal model of DMD. […] In addition, normal hematology (white blood cell, red blood cell, platelet counts) and serum chemistry (ALT, AST, GGT, bilirubin, creatinine, potassium, creatine kinase) profiles were noted following a single IV injection of NBD in normal dogs (data not shown). Based on our collective data, a preclinical trial in GRMD dogs was initiated with four primary outcomes: skeletal muscle function, MRI of pelvic limb muscles, histopathologic features of skeletal muscles, and safety. Juvenile GRMD (n = 6) and wild type (n = 3) dogs at 2 months of age were treated for 4 months by IV infusions, 3× weekly, at 10 mg/Kg. Results were compared with those collected from untreated GRMD and wild type dogs through a separate, natural history study.

GRMD dogs [3] = assay: Cranial sartorius (CS) circumference, GRMD dogs; assay type: in vivo, dog; details: age 6 months, NBD 10 mg/kg IV 3x weekly for 4 months, n = 6
Source text: We have previously shown that the CS muscle undergoes dramatic hypertrophy in GRMD dogs and that this hypertrophy tracks with postural abnormalities. Accordingly, we use CS circumference measured at surgery during routine biopsy as a surrogate for muscle hypertrophy and associated postural changes in GRMD [24]. Dogs were anesthetized (above), and an incision was made over the cranial aspect of the thigh. In advance of biopsy, the CS muscle was isolated. Nylon suture was placed around the muscle at approximately midsection and tightened so as to snugly encircle the muscle belly. The two ends of the suture were secured with a pair of hemostats and then cut on the muscle side of the hemostat. The length in mm was divided by body mass in kg (mm/kg). An average of two measurements was recorded.

GRMD dogs [4] = assay: Eccentric contraction decrement (ECD), GRMD dogs; assay type: in vivo, dog; details: n = 6; for ECD (1-10): after 10 contractions; for ECD (1-30): after 30 contractions
Source text: Eccentric contractions were induced by stimulating the peroneal nerve using square wave pulses of 100 μs duration in a tetanic run for 1 s at a frequency of 50 Hz while simultaneously extending the TTJ with a servomotor (Aurora Scientific, Aurora, ON, Canada). The contraction was held isometric at the optimal joint angle, expressed as Lo here (see discussion above), for the first 900 ms. For the final 100 ms, the muscles of the cranial tibial compartment were stretched by the servomotor at 0.7 Lo/s, such that the muscles were displaced to 107% of Lo. Thus, the muscles of the cranial tibial compartment were repeatedly stretched to induce mechanical damage. Three sets of 10 stretches for a total of 30, each set separated by 4 min, were performed. Contraction-induced injury was quantified by the force (torque) deficit (Fd) using the following equation: Fd = (Maximal isometric tetanic force (Po) before stretch - Po after stretch/Po before stretch) × 100.

[5] = NBD group, age 2 months (start of treatment)
[6] = age 6 months, NBD 10 mg/kg IV 3x weekly for 4 months

In the case of “TALDWSWLQTE [NBD, NBD peptide (…) fused to an Antennapedia protein transduction domain]”, the “Absolute Tetanic Extension Force” value (GRMD dogs [1]; [5]) is reported as 7.50 ± 2.09 N, the “Absolute Tetanic Extension Torque” value (GRMD dogs [1]; [5]) is reported as 0.62 ± 0.16 Nm and the “Absolute Tetanic Flexion Force” value (GRMD dogs [1]; [5]) is reported as 2.05 ± 0.58 N. For the same sequence, the “Absolute Tetanic Flexion Torque” value (GRMD dogs [1]; [5]) was 0.17 ± 0.06 Nm, the “Body-mass Corrected Tetanic Extension Force” value (GRMD dogs [1]; [5]) was 2.11 ± 0.70 N/kg and the “Body-mass Corrected Tetanic Extension Torque” value (GRMD dogs [1]; [5]) was 0.21 ± 0.07 Nm/kg. The “Body-mass Corrected Tetanic Flexion Force” value (GRMD dogs [1]; [5]) was 0.57 ± 0.15 N/kg, the “Body-mass Corrected Tetanic Flexion Torque” value (GRMD dogs [1]; [5]) was 0.05 ± 0.01 Nm/kg and the “Absolute Tetanic Extension Force” value (GRMD dogs [1]; [6]) was 34.30 ± 9.65^1**,2 N. The “Absolute Tetanic Extension Torque” value (GRMD dogs [1]; [6]) was 4.55 ± 1.49^1**,2 Nm, the “Absolute Tetanic Flexion Force” value (GRMD dogs [1]; [6]) was 6.79 ± 1.13^1 N and the “Absolute Tetanic Flexion Torque” value (GRMD dogs [1]; [6]) was 0.89 ± 0.18^1 Nm. For the same sequence, the “Body-mass Corrected Tetanic Extension Force” value (GRMD dogs [1]; [6]) was 2.70 ± 0.65^2 N/kg, the “Body-mass Corrected Tetanic Extension Torque” value (GRMD dogs [1]; [6]) was 0.36 ± 0.08^1*,2 Nm/kg and the “Body-mass Corrected Tetanic Flexion Force” value (GRMD dogs [1]; [6]) was 0.55 ± 0.13 N/kg. The “Body-mass Corrected Tetanic Flexion Torque” value (GRMD dogs [1]; [6]) was 0.07 ± 0.02^1 Nm/kg, the “Increase in extension force vs untreated GRMD dogs” value (GRMD dogs [1]; pelvic limb, body-mass corrected, NBD 10 mg/kg IV 3x weekly for 4 months, P = 0.038) was 73% and the “Hematology and serum chemistry profiles” value [2] was “normal”. The “CS Circumference” value (GRMD dogs [3]) was 3.67 ± 0.65 mm/kg, the “ECD (1-10)” value (GRMD dogs [4]; [5]) was 16.12 ± 5.88% and the “ECD (1-10)” value (GRMD dogs [4]; [6]) was 32.04 ± 13.46%. The “ECD (1-30)” value (GRMD dogs [4]; [5]) was 38.67 ± 10.34% and the “ECD (1-30)” value (GRMD dogs [4]; [6]) was 54.48 ± 13.64%.

From article PMC4364341, “NBD delivery improves the disease phenotype of the golden retriever model of Duchenne muscular dystrophy” (Skeletal Muscle, 2014)
